Key:
Coagulation factor X = Coagulation factor X (Homo sapiens, UniProt P00742); assay: Tested in vitro for the inhibitory potency against Coagulation factor Xa
Prothrombin = Prothrombin (Homo sapiens, UniProt P00734); assay: Tested in vitro for the selectivity against thrombin (IIa)
Serine protease 1 = Serine protease 1 (Homo sapiens, UniProt P07477); assay: Tested in vitro for the selectivity against trypsin (Trp)
Sequence of Serine protease 1 (P07477 whole entry): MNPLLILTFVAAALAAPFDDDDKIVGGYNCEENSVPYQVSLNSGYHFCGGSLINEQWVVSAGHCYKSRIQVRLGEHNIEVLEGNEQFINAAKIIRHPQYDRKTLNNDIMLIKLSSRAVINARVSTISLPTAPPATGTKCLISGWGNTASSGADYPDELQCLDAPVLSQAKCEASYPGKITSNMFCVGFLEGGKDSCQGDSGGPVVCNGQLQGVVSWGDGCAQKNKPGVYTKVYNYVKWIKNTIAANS

Sequence of Coagulation factor X (P00742 41-179 limits assumed): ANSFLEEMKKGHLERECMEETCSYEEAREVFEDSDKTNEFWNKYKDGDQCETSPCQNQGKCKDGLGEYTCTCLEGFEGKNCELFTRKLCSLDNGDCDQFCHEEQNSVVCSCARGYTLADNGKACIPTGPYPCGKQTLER
Sequence of Coagulation factor X (P00742 235-488 limits assumed): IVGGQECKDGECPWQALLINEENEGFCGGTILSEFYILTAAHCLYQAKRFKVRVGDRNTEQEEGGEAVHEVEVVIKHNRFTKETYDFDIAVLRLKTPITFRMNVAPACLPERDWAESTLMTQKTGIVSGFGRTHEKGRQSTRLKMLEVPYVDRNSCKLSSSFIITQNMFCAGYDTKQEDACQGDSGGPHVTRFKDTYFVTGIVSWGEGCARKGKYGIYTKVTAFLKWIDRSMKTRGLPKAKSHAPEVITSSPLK

Compound	Ki (Coagulation factor X)	Ki (Prothrombin)	Ki (Serine protease 1)
CCc1nc2c(N(C)C)c(OC3CCN(C(C)=N)CC3)ccc2n1Cc1ccc2ccc(C(=N)N)cc2c1	5 nM	> 5000 nM	10 nM
CCc1nc2ccc(OC3CCN(C(C)=N)CC3)cc2n1Cc1ccc(-c2cccc(C(=N)N)c2)cc1	2.2 nM	770 nM	73 nM
CCc1nc2cc(OC3CCN(C(C)=N)CC3)ccc2n1Cc1ccc2ccc(C(=N)N)cc2c1	–	2000 nM	5 nM
CCc1nc2cc(OC3CCN(C(C)=N)CC3)ccc2n1Cc1ccc(-c2ccc(C(=N)N)cc2)cc1	670 nM	1500 nM	150 nM
CCc1nc2c([N+](=O)[O-])c(OC3CCN(C(C)=N)CC3)ccc2n1Cc1ccc2ccc(C(=N)N)cc2c1	0.1 nM	3000 nM	5 nM
CCc1nc2ccc(OC3CCN(C(C)=N)CC3)cc2n1Cc1ccc(-c2ccc(C(=N)N)cc2)cc1	180 nM	22 nM	91 nM
CC(=N)N1CCC(Oc2ccc3c(nc(C)n3Cc3ccc4ccc(C(=N)N)cc4c3)c2[N+](=O)[O-])CC1	–	> 5000 nM	3 nM
CCc1nc2cc(OC3CCN(C(C)=N)CC3)ccc2n1Cc1cccc(-c2cccc(C(=N)N)c2)c1	–	1120 nM	67 nM
CCc1nc2cc(OC3CCN(C(C)=N)CC3)ccc2n1Cc1cccc(-c2ccc(C(=N)N)cc2)c1	260 nM	> 5000 nM	690 nM
CCc1nc2c(N)c(OC3CCN(C(C)=N)CC3)ccc2n1Cc1ccc2ccc(C(=N)N)cc2c1	8 nM	3500 nM	24 nM
CCc1nc2ccc(OC3CCN(C(C)=N)CC3)cc2n1Cc1cccc(-c2ccc(C(=N)N)cc2)c1	150 nM	3600 nM	430 nM
CCc1nc2c(NC(C)=O)c(OC3CCN(C(C)=N)CC3)ccc2n1Cc1ccc2ccc(C(=N)N)cc2c1	50 nM	> 5000 nM	25 nM
CCc1nc2c(N(CC(=O)O)CC(=O)O)c(OC3CCN(C(C)=N)CC3)ccc2n1Cc1ccc2ccc(C(=N)N)cc2c1	50 nM	> 5000 nM	15 nM
CCc1nc2ccc(OC3CCN(C(C)=N)CC3)cc2n1Cc1cccc(-c2cccc(C(=N)N)c2)c1	34 nM	190 nM	190 nM
CC(=N)N1CCC(Oc2ccc3c(nc(C(C)C)n3Cc3ccc4ccc(C(=N)N)cc4c3)c2[N+](=O)[O-])CC1	0.2 nM	> 5000 nM	3 nM
CCc1nc2cc(OC3CCN(C(C)=N)CC3)ccc2n1Cc1ccc(-c2cccc(C(=N)N)c2)cc1	17 nM	210 nM	140 nM

Reference: ChEMBL document CHEMBL1135304, “Benzimidazole-based fXa inhibitors with improved thrombin and trypsin selectivity” (Bioorg Med Chem Lett, 2002)
